Laboratory results: patent publication US6878712B1, “Amides as inhibitors for pyruvate dehydrogenase” (AstraZeneca AB, priority 1999, dated 2005)
Structures can show the parent of a compound that is named as a salt.

Legend:
PDH = conditions: cited from earlier work
[1] = cited from earlier work

Compound | melting point [°C] | also measured
C[C@@](O)(C(=O)N1CCC(C(=O)c2ccc(F)cc2)CC1)C(F)(F)F | 78 to 79 | 
C[C@@H]1CN(C(=O)[C@@](C)(O)C(F)(F)F)[C@@H](C)CN1S(=O)(=O)c1ccc(C#N)cc1 | 186 to 187 | 
CCS(=O)(=O)N1C[C@H](C)N(C(=O)[C@@](C)(O)C(F)(F)F)C[C@H]1C | 142 to 144 | 
C[C@@H]1CN(C(=O)[C@@](C)(O)C(F)(F)F)[C@@H](C)CN1S(=O)(=O)c1cccs1 | 116 to 117 | 
C[C@@H]1CN(C(=O)[C@@](C)(O)C(F)(F)F)[C@@H](C)CN1S(=O)(=O)c1ccc(C(=O)O)cc1 | 194 to 196 | 
C[C@@H]1CN(C(=O)[C@@](C)(O)C(F)(F)F)[C@@H](C)CN1S(=O)(=O)c1ccc(C(=O)N(C)C)cc1 | 86 to 87 | 
C[C@@H]1CN(C(=O)[C@@](C)(O)C(F)(F)F)[C@@H](C)CN1S(=O)(=O)c1ccc(F)cc1 | 174 to 175 | 
C[C@@H]1CN(C(=O)[C@@](C)(O)C(F)(F)F)[C@@H](C)CN1C(=O)c1ccc(F)cc1 | 177 to 178 | 
C[C@@](O)(C(=O)N1CCC(N)CC1)C(F)(F)F (as salt: hydrochloride) | 245 to 246 | 
O=C(O)C(Cl)Cl [DCA, dichloroacetic acid] |  | activity of PDH (PDH; after acute administration in animals): increases the activity of PDH; proportion of PDH in its active form (PDH; single administration, 150 mg/kg, intraperitoneally): increased the proportion of PDH in its active form; plasma glucose ([1]; after repeated administration): significant decrease in plasma glucose; glycaemia ([1]; in vivo): reducing glycaemia
